Source: ChEMBL document CHEMBL3414518, “Development of selective DprE1 inhibitors: Design, synthesis, crystal structure and antitubercular activity of benzothiazolylpyrimidine-5-carboxamides” (Eur J Med Chem, 2015)
In brackets after ≈: the same amount, converted by molar mass.

Experiments:
[1] = system: Mycobacterium tuberculosis; assay: Antitubercular activity against Mycobacterium tuberculosis H37Rv ATCC 27294 after 5 days by broth microdilution method; format: functional; conditions: H37Rv ATCC 27294, 120 h
[2] = Cmax in Sprague-Dawley rat at 10 mg/kg, iv; format: ADME, organism-based; design: dose 10 mg/kg, route intravenous; conditions: in vivo
[3] = AUC (0 to infinity) in Sprague-Dawley rat at 10 mg/kg, iv; format: ADME, organism-based; design: time infinity, dose 10 mg/kg, route intravenous; conditions: plasma
[4] = Elimination half life in Sprague-Dawley rat at 10 mg/kg, iv; format: ADME, organism-based; design: dose 10 mg/kg, route intravenous; conditions: in vivo, read-out: beta t1/2 (converted)
[5] = AUC (0 to infinity) in Sprague-Dawley rat at 20 mg/kg, po; format: ADME, organism-based; design: time infinity, dose 20 mg/kg, route oral; conditions: plasma
[6] = Oral bioavailability in Sprague-Dawley rat at 20 mg/kg; format: ADME, organism-based; conditions: in vivo
[7] = Elimination half life in Sprague-Dawley rat at 20 mg/kg, po; format: ADME, organism-based; design: dose 20 mg/kg, route oral; conditions: in vivo, read-out: beta t1/2 (converted)
[8] = Inhibition of Mycobacterium tuberculosis DprE1 using beta-D-ribofuranose as substrate after 7 mins by UV-Visible spectroscopy
[9] = Cmax in Sprague-Dawley rat at 20 mg/kg, po; format: ADME, organism-based; design: dose 20 mg/kg, route oral; conditions: in vivo
[10] = Tmax in Sprague-Dawley rat at 20 mg/kg, po; format: ADME, organism-based; design: dose 20 mg/kg, route oral; conditions: in vivo
[11] = Partition coefficient, log P of the compound in PBS at 10 mM at pH 7.4 after 5 hrs by shake flask method; format: physicochemical

COC(=O)c1ccc(C2NC(=S)NC(C)=C2C(=O)Nc2nc3ccccc3s2)cc1 (stereo not given)
MIC [1]: 3.1 µM (≈ 1.36 µg/mL)

CC1=C(C(=O)Nc2nc3ccccc3s2)C(c2ccccc2)NC(=S)N1 (stereo not given)
Cmax [2]: 1800 ng/mL
AUC(0-inf) [3]: 1500 ng·h/mL
half-life [4]: 2.6 h
AUC(0-inf) [5]: 790 ng·h/mL
bioavailability [6]: 52.7%
half-life [7]: 5.5 h
IC50 [8]: 7.7 µM
Cmax [9]: 590 ng/mL
Tmax [10]: 0.5 h
logD at 5 h [11]: 2.03
MIC [1]: 0.08 µM (≈ 0.0304 µg/mL)

CC1=C(C(=O)Nc2nc3ccccc3s2)C(c2ccc(Cl)cc2Cl)NC(=S)N1 (stereo not given)
MIC [1]: 0.25 µM (≈ 0.112 µg/mL)

NNC(=O)c1ccncc1 [ISONIAZID]
MIC [1]: 0.2 µM (≈ 0.0274 µg/mL)

CC1=C(C(=O)Nc2nc3ccccc3s2)C(c2cccc([N+](=O)[O-])c2)NC(=S)N1 (stereo not given)
MIC [1]: 1.3 µM (≈ 0.553 µg/mL)

CC1=C(C(=O)Nc2nc3ccccc3s2)C(c2ccccc2O)NC(=S)N1 (stereo not given)
MIC [1]: 2.4 µM (≈ 0.952 µg/mL)

CC1=C(C(=O)Nc2nc3ccccc3s2)C(c2ccccc2Cl)NC(=S)N1 (stereo not given)
MIC [1]: 0.32 µM (≈ 0.133 µg/mL)

CC1=C(C(=O)Nc2nc3ccccc3s2)C(c2ccc(Cl)cc2)NC(=S)N1 (stereo not given)
MIC [1]: 0.32 µM (≈ 0.133 µg/mL)

COc1cc(C2NC(=S)NC(C)=C2C(=O)Nc2nc3ccccc3s2)cc(OC)c1O (stereo not given)
MIC [1]: 1.2 µM (≈ 0.548 µg/mL)

COc1ccc(C2NC(=S)NC(C)=C2C(=O)Nc2nc3ccccc3s2)cc1O (stereo not given)
MIC [1]: 1.2 µM (≈ 0.512 µg/mL)

CC1=C(C(=O)Nc2nc3ccccc3s2)C(c2ccc([N+](=O)[O-])cc2)NC(=S)N1 (stereo not given)
MIC [1]: 1.2 µM (≈ 0.511 µg/mL)

CC1=C(C(=O)Nc2nc3ccccc3s2)C(c2ccc(C(F)(F)F)cc2)NC(=S)N1 (stereo not given)
Cmax [2]: 1730 ng/mL
AUC(0-inf) [3]: 1640 ng·h/mL
half-life [4]: 2.6 h
AUC(0-inf) [5]: 830 ng·h/mL
bioavailability [6]: 50.6%
half-life [7]: 6 h
IC50 [8]: 11.1 µM
Cmax [9]: 490 ng/mL
Tmax [10]: 0.6 h
logD at 5 h [11]: 2.92
MIC [1]: 0.09 µM (≈ 0.0404 µg/mL)

COc1ccccc1C1NC(=S)NC(C)=C1C(=O)Nc1nc2ccccc2s1 (stereo not given)
MIC [1]: 0.5 µM (≈ 0.205 µg/mL)

CC1=C(C(=O)Nc2nc3ccccc3s2)C(c2ccc(F)cc2)NC(=S)N1 (stereo not given)
Cmax [2]: 1500 ng/mL
AUC(0-inf) [3]: 1530 ng·h/mL
half-life [4]: 2.8 h
AUC(0-inf) [5]: 810 ng·h/mL
bioavailability [6]: 51.9%
half-life [7]: 5.8 h
IC50 [8]: 9.2 µM
Cmax [9]: 340 ng/mL
Tmax [10]: 0.6 h
logD at 5 h [11]: 2.18
MIC [1]: 0.09 µM (≈ 0.0359 µg/mL)

CC1=C(C(=O)Nc2nc3ccccc3s2)C(c2ccc(Br)cc2)NC(=S)N1 (stereo not given)
MIC [1]: 0.4 µM (≈ 0.184 µg/mL)

CC1=C(C(=O)Nc2nc3ccccc3s2)C(c2ccc(N(C)C)cc2)NC(=S)N1 (stereo not given)
Cmax [2]: 1620 ng/mL
AUC(0-inf) [3]: 1480 ng·h/mL
half-life [4]: 2.5 h
AUC(0-inf) [5]: 780 ng·h/mL
bioavailability [6]: 52.7%
half-life [7]: 1.4 h
IC50 [8]: 10.3 µM
Cmax [9]: 410 ng/mL
Tmax [10]: 0.5 h
logD at 5 h [11]: 2.22
MIC [1]: 0.08 µM (≈ 0.0339 µg/mL)

COc1cccc(C2NC(=S)NC(C)=C2C(=O)Nc2nc3ccccc3s2)c1O (stereo not given)
MIC [1]: 1.4 µM (≈ 0.597 µg/mL)

CC1=C(C(=O)Nc2nc3ccccc3s2)C(c2ccc(O)cc2)NC(=S)N1 (stereo not given)
MIC [1]: 2.4 µM (≈ 0.952 µg/mL)

CC1=C(C(=O)Nc2nc3ccccc3s2)C(c2ccccc2[N+](=O)[O-])NC(=S)N1 (stereo not given)
MIC [1]: 1.2 µM (≈ 0.511 µg/mL)

COc1ccc(C2NC(=S)NC(C)=C2C(=O)Nc2nc3ccccc3s2)cc1 (stereo not given)
MIC [1]: 0.5 µM (≈ 0.205 µg/mL)
